Patent US20090312396A1, “METHODS FOR CANCER TREATMENT USING TAK1 INHIBITORS” (AstraZeneca AB, priority 2006, published 2009)
Where two headings read alike, the source gives them in different places.

What was measured:
TAK1 = target: T1, TAK1 (Homo sapiens, UniProt O43318); experiment: TAK1 enzyme inhibition; assay type: biochemical; settings: Table 4; read-out: TAK1 pIC50 (enzyme) (converted)
T1 sequence (O43318 1-606): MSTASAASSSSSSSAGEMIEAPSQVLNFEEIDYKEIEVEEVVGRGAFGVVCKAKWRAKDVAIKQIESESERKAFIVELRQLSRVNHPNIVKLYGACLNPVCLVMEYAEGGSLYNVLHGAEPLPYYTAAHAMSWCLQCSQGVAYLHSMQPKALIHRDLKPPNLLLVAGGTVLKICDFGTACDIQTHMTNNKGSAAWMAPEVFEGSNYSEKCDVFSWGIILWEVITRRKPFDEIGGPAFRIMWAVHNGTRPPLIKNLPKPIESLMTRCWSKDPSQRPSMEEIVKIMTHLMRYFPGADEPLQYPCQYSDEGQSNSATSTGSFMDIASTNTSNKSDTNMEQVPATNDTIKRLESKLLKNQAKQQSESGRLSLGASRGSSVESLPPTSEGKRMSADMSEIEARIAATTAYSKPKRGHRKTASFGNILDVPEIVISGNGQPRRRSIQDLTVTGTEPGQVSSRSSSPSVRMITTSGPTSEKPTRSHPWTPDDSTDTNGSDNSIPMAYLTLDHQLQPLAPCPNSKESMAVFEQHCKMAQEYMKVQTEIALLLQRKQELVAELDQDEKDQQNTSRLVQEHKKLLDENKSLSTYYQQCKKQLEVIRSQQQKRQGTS
T1 sequence (Q15750 1-504 partner): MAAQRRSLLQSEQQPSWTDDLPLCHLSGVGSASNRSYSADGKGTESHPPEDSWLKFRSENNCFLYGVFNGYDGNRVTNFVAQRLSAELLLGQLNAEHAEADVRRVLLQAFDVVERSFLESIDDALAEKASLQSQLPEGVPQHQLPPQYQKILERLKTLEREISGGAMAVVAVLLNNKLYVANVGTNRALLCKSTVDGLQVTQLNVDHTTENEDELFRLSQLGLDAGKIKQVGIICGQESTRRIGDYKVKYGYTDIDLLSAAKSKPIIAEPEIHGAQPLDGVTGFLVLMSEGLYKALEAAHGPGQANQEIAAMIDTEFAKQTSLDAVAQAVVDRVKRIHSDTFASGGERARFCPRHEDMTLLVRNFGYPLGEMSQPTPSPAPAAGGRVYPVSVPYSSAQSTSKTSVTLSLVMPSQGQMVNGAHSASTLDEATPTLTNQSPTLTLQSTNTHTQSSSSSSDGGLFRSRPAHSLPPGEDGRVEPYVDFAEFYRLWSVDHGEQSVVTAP

ARH77 = experiment: AlamarBlue proliferation assay, GI50; assay type: cell-based; settings: Homo sapiens, ARH-77, 72 hours
Procedure: (§1) The TAK1 inhibitors are known in the art (see for example, WO 2003010158, WO 2003010163 and WO2004063186 the disclosures of which are incorporated by reference herein). All cell lines were plated at 10,000 cells/well in flat-bottomed 96 well plates and dosed with test compounds in triplicate over a 10 point dosing range from 0 to 30 μmolesL^−1. All cell lines were incubated with test compounds for a total of 72 hours. Background levels were determined for a control (undosed) plate within 2 hours of dosing test compounds. Following the dosing period, the extent of proliferation was measured by adding 1/10 (vol/vol) AlamarBlue reagent to every well and incubating the plates for a further 4 hours. The reaction was stopped by the addition of SDS to a final concentration of 0.1%. Fluorescence was measured at 545 nm (excitation) and 600 nm (emission). Growth inhibition 50 (GI50) values were determined for each test compound across the panel.

DOHH2 = experiment: AlamarBlue proliferation assay, GI50; assay type: cell-based; settings: Homo sapiens, DOHH-2, 72 hours
Procedure: as §1

HEL92.1.7 = experiment: AlamarBlue proliferation assay, GI50; assay type: cell-based; settings: Homo sapiens, HEL 92.1.7, 72 hours, Table 4, read-out: GI50 HEL92.1.7 Erythroleukemia
Procedure: as §1

Jurkat = experiment: AlamarBlue proliferation assay, GI50; assay type: cell-based; settings: Homo sapiens, 72 hours, Table 4, read-out: GI50 Jurkat T-ALL
Procedure: as §1

KG1a = experiment: AlamarBlue proliferation assay, GI50; assay type: cell-based; settings: Homo sapiens, KG-1a, 72 hours, Table 4, read-out: GI50 KG1a AML
Procedure: as §1

Karpas231 = experiment: AlamarBlue proliferation assay, GI50; assay type: cell-based; settings: Homo sapiens, 72 hours
Procedure: as §1

MEC1 = experiment: AlamarBlue proliferation assay, GI50; assay type: cell-based; settings: Homo sapiens, 72 hours
Procedure: as §1

OCI-LY19 = experiment: AlamarBlue proliferation assay, GI50; assay type: cell-based; settings: Homo sapiens, 72 hours
Procedure: as §1

SUDHL4 = experiment: AlamarBlue proliferation assay, GI50; assay type: cell-based; settings: Homo sapiens, SU-DHL-4, 72 hours
Procedure: as §1

WSU-NHL = experiment: AlamarBlue proliferation assay, GI50; assay type: cell-based; settings: Homo sapiens, 72 hours, Table 4, read-out: GI50 WSU-NHL B-NHL
Procedure: as §1

Raji = experiment: AlamarBlue proliferation assay, GI50; assay type: cell-based, human; settings: Homo sapiens, Raji, 72 hours, Table 4, read-out: GI50 Raji Burkitts Lymphoma
Procedure: as §1

AM0-1 = experiment: AlamarBlue proliferation assay, GI50; assay type: cell-based; settings: Homo sapiens, 72 hours, Table 8, read-out: GI50 AM0-1 plasmacytoma
Procedure: as §1
(§2) The experiments to generate the results for both Tables 5 and 6 were performed as described above.

IM-9 = experiment: AlamarBlue proliferation assay, GI50; assay type: cell-based; settings: Homo sapiens, 72 hours, Table 8, read-out: GI50 IM-9 B lymphoblastoid
Procedure: as §1, §2

JEKO-1 = experiment: AlamarBlue proliferation assay, GI50; assay type: cell-based; settings: Homo sapiens, 72 hours, Table 7, read-out: GI50 JEKO-1 MCL
Procedure: as §1, §2

JJN-3 = experiment: AlamarBlue proliferation assay, GI50; assay type: cell-based; settings: Homo sapiens, 72 hours, Table 8, read-out: GI50 JJN-3 plasma cell leukemia
Procedure: as §1, §2

JVM-3 = experiment: AlamarBlue proliferation assay, GI50; assay type: cell-based; settings: Homo sapiens, 72 hours, Table 7, read-out: GI50 JVM-3 B-PLL
Procedure: as §1, §2

L-363 = experiment: AlamarBlue proliferation assay, GI50; assay type: cell-based; settings: Homo sapiens, 72 hours, Table 8, read-out: GI50 L-363 plasma cell leukemia
Procedure: as §1, §2

MOLP-8 = experiment: AlamarBlue proliferation assay, GI50; assay type: cell-based; settings: Homo sapiens, 72 hours, Table 8, read-out: GI50 MOLP-8 Multiple myeloma
Procedure: as §1, §2

RPMI-8226 = experiment: AlamarBlue proliferation assay, GI50; assay type: cell-based; settings: Homo sapiens, 72 hours, Table 8, read-out: GI50 RPMI-8226 M.M
Procedure: as §1, §2

WSU DLCL2 = experiment: AlamarBlue proliferation assay, GI50; assay type: cell-based; settings: Homo sapiens, WSUDLCL2, 72 hours, Table 7, read-out: GI50 WSU-DLCL B cell lymphoma
Procedure: as §1, §2

[1] = tested on: Lymphoma cell lines carrying the t(14;18) chromosomal translocation; experiment: AlamarBlue proliferation assay, Example 2; assay type: cell-based; settings: t(14;18) lymphoma cell lines, 72 hours, 0 to 30 μmoles/L, FIG. 3
Procedure: The chemical name of the compound is 3-[(aminocarbonyl)amino]-5-(4-{[4-(2-methoxyethyl)piperazin-1-yl]methyl}phenyl)thiophene-2-carboxamide.
More specifically, cell lines (OCI-LY19, DOHH2, Karpas231, WSU-NHL and SUDHL4 carry the t(14;18) translocation) were plated at 10,000 cells/well in flat-bottomed 96 well plates and dosed with test compounds in triplicate over a 10 point dosing range from 0 to 30 μmolesL^−1. All cell lines were incubated with test compounds for a total of 72 hours. Background levels were determined for a control (undosed) plate within 2 hours of dosing test compounds. Following the dosing period, the extent of proliferation was measured by adding 1/10 (vol/vol) AlamarBlue reagent to every well and incubating the plates for a further 4 hours. The reaction was stopped by the addition of SDS to a final concentration of 0.1%. Fluorescence was measured at 545 nm (excitation) and 600 nm (emission). GI50 values were determined for each test compound across the panel.

[2] = Table 4, read-out: GI50 ARH77 Plasma cell leukemia
[3] = Table 4, read-out: GI50 DOHH2 FL
[4] = Table 4, read-out: GI50 Karpas231 B-ALL
[5] = Table 4, read-out: GI50 MEC1 B-CLL
[6] = Table 4, read-out: GI50 OCI-LY19 DLBCL
[7] = Table 4, read-out: GI50 SUDHL4 DLBCL

SMILES	IC50 (TAK1) [nM]	GI50 (ARH77; [2]) [nM]	GI50 (DOHH2; [3]) [nM]	GI50 (HEL92.1.7) [nM]	GI50 (Jurkat) [nM]	GI50 (KG1a) [nM]	GI50 (Karpas231; [4]) [nM]	GI50 (MEC1; [5]) [nM]	GI50 (OCI-LY19; [6]) [nM]	GI50 (SUDHL4; [7]) [nM]	GI50 (WSU-NHL) [nM]	GI50 (Raji) [nM]	also measured
NC(=O)Nc1sc(-c2ccc(CN3CCOCC3)cc2)cc1C(N)=O [Compound 1, 2-[(aminocarbonyl)amino]-5-[4-(morpholin-4-ylmethyl)phenyl]thiophene-3-carboxamide]	126	1170	127	730	15900	450	300	1340	124	6390	370	15200	
CC(c1ccc(-c2cc(C(N)=O)c(NC(N)=O)s2)cc1)N1CCCCC1 (stereo not shown) [Compound 2, 2-[(aminocarbonyl)amino]-5-[4-(1-piperidin-1-ylethyl)phenyl]thiophene-3-carboxamide]	50.1	250	14	170	4390	400	140	160	5	2420	250	3500	
NC(=O)Nc1cc(-c2ccc(CN3CCOCC3)cc2)sc1C(N)=O [Compound 3, 3-[(aminocarbonyl)amino]-5-[4-(morpholin-4-ylmethyl)phenyl]thiophene-2-carboxamide]	100	480	175	500	> 30000	430	160	630	85	2720	420	> 30000	
COc1cc(O)c2c(c1)/C=C/C[C@H](O)[C@H](O)C(=O)/C=C\C[C@H](C)OC2=O [LL-Z-1640-2, (3S,5Z,8S,9S,11E)-8,9,16-trihydroxy-14-methoxy-3-methyl-3,4,9,10-tetrahydro-1H-2-benzoxacyclotetradecine-1,7(8H)-dione, reference compound]													GI50 (ARH77; Table 8, read-out: GI50 ARH-77 plasma cell leukemia): 1240 nM; GI50 (DOHH2; Table 7, read-out: GI50 DOHH2 FL): 390 nM; GI50 (Karpas231; Table 7, read-out: GI50 KARPAS231 B-ALL): 950 nM; GI50 (MEC1; Table 7, read-out: GI50 MEC1 B-CLL): 730 nM; GI50 (OCI-LY19; Table 7, read-out: GI50 OCI-LY19 DLBCL): 230 nM; GI50 (SUDHL4; Table 7, read-out: GI50 SUDHL4 DLBCL): 1640 nM; GI50 (AM0-1): 570 nM; GI50 (IM-9): 20 nM; GI50 (JEKO-1): 70 nM; GI50 (JJN-3): ≥ 32400 nM; GI50 (JVM-3): 710 nM; GI50 (L-363): ≥ 32400 nM; GI50 (MOLP-8): 10400 nM; GI50 (RPMI-8226): 1410 nM; GI50 (WSU DLCL2): 20 nM
COCCN1CCN(Cc2ccc(-c3cc(NC(N)=O)c(C(N)=O)s3)cc2)CC1 [TAK1 inhibitor, 3-[(aminocarbonyl)amino]-5-(4-{[4-(2-methoxyethyl)piperazin-1-yl]methyl}phenyl)thiophene-2-carboxamide]													sensitivity of cell lines to TAK1 inhibitor [1]: sensitive
